Experimental data reported in patent publication EP0463456A1, “Phosphorus-containing HMG-CoA reductase inhibitors, new intermediates and their use” (E.R. SQUIBB & SONS, INC., priority 1990, dated 1992).

Biological target: T1, freshly isolated rat hepatocyte suspensions (Rattus norvegicus, UniProt P51639)
T1 sequence (P51639 1-887): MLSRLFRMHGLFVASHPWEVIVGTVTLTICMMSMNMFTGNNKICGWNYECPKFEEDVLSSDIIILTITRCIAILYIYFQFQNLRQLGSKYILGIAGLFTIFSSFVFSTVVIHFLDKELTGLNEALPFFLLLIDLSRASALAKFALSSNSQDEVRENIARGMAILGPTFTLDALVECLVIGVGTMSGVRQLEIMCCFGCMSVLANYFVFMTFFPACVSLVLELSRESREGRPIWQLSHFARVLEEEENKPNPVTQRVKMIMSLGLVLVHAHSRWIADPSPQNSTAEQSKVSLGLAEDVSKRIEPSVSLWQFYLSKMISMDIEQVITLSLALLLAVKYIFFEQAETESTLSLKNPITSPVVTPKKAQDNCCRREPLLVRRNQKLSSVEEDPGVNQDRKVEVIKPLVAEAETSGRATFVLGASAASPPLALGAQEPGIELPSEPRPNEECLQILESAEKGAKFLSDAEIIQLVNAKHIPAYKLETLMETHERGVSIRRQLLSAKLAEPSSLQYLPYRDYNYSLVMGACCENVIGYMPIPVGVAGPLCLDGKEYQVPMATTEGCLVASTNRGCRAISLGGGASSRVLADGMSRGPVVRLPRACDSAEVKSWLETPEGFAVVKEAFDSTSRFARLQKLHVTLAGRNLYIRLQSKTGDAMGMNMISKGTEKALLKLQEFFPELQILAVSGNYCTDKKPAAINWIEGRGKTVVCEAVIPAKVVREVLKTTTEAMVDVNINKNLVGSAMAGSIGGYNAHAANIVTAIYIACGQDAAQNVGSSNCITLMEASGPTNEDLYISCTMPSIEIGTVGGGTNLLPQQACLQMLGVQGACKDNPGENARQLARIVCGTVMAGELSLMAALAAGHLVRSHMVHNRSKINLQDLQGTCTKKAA
Test: Cholesterol Synthesis in Freshly Isolated Rat Hepatocytes (14C-acetate incorporation into cholesterol)
Format: cell-based
Settings: inhibition of 14C-acetate incorporation into cholesterol; 2.0 hours at 37° C; read-out: Hepatocytes 150
Description: 2) Cholesterol Synthesis in Freshly Isolated Rat Hepatocytes […]
a. Isolation of Rat Hepatocytes
Sprague Dawley rats (180-220 grams) are anesthetized with Nembutol (50 mg/kg). The abdomen is opened and the first branch of the portal vein is tied closed. Heparin (100-200 units) is injected directly into the abdominal vena cava. A single closing suture is placed on the distal section of the portal vein, and the portal vein is canulated between the suture and the first branching vein. The liver is perfused at a rate of 20 ml/minute with prewarmed (37° C), oxygenated buffer A (HBSS without calcium or magnesium containing 0.5 mM EDTA) after severing the vena cava to allow drainage of the effluent. The liver is additionally perfused with 200 ml of prewarmed buffer B (HBSS containing 0.05% bacterial collagenase). […] Pelleted hepatocytes are washed once in Waymouth's medium, counted and assayed for viability by trypan blue exclusion. […]
Lipids are extracted essentially as described by Bligh, E. G. and W. J. Dyer, Can. […] Plates are scanned and counted using a BioScan automated scanning system. Radiolabel in the cholesterol peak (RF 0.28) is determined and expressed at total counts per peak and as a percent of the label in the total lipid extract. […]
Drug effects (% inhibition of cholesterol synthesis) are determined by comparing % of label in cholesterol for control and drug treated cultures. […]

IC50: 78 nM
Substance: (S)-4-[[[4-(4-Fluorophenyl)-1,2-bis(1-methylethyl)-5-phenyl-1H-pyrrol-3-yl]-ethynyl]hydroxyphosphinyl]-3-hydroxybutanoic acid, dilithium salt [SQ 34,346]
